Patent US20220257578A1, “COMPOSITION AND METHOD FOR TREATING CANDIDA AURIS INFECTION” (Appili Therapeutics Inc., priority 2019, published 2022)
Values after ≈ are worked out from the molar mass of the structure shown. Where two headings read alike, the source gives them in different places.

Assays:
C. auris (DI 17-46) = assay: Neutropenic mice with invasive candidiasis secondary to C. auris (survival arm and fungal burden arm); format: in vivo; conditions: for percent survival: day 21, control 0%; for kidney fungal burden (mean): control 7.09; for kidney fungal burden: control 8.04
Protocol: FIG. 1 depicts survival curves in mice inoculated intravenously with C. auris and treated with vehicle control, fluconazole 20 mg/kg PO QD, or caspofungin 10 mg/kg IP QD (A) or T-2307 at doses of 0.75 mg/kg, 1.5 mg/kg, or 3 mg/kg SC QD (B). Treatment started one day post-inoculation and continued for 7 days. Mice were then followed off therapy until day 21 post-inoculation (14 days after therapy stopped). Black square—vehicle control; white circle—fluconazole 20 mg/kg; black circle—caspofungin 10 mg/kg; inverted gray triangle T-2307 0.75 mg/kg; gray rectangle—T-2307 1.5 mg/kg; gray triangle—T-2307 3 mg/kg. N=10 mice per group.
(§1) FIG. 2 depicts graphs showing kidney (A) and brain (B) fungal burden (CFU/g) in mice with invasive candidiasis secondary to C. auris in the fungal burden arm. Colony-forming units were measured on day 8 post-inoculation after 7 days of therapy. N=10 mice in the vehicle control and treatment groups; N=5 mice in the 24-hour control group.
as §1, with “FIG. 3” for “FIG. 2”, “the survival” for “the fungal burden”, “group. Black circles represent mice that succumbed to infection prior to day 21; gray circles represent mice that survived to the survival endpoint.” for “group.”
Male Institute of Cancer Research (ICR) mice were rendered neutropenic with a single dose of 5-fluorouracil (5 mg/mouse) administered 24 hours prior to inoculation, and a clinical isolate of C. auris (DI 17-46) was used to infect mice via the lateral tail vein as previously described (Wiederhold et al. 2019. Antimicrob Agents Chemother. 63:e02233-18, the entire contents of which is herein incorporated by reference). Treatment with vehicle control, T-2307 (0.75, 1.5, or 3 mg/kg subcutaneously (SC) once daily), fluconazole (20 mg/kg per orally (PO) once daily), or caspofungin (10 mg/kg intraperitoneally (IP) once daily) began 1-day post-inoculation and continued for 7 days. In the fungal burden arm, mice were humanely euthanized on day 8 post-inoculation, and kidneys and brains were collected, weighed, and homogenized for analysis of colony-forming units (CFU/g). In the survival arm, mice were followed off therapy for 14 days, until day 21 post-inoculation. Fungal burden was also assessed in the survival arm on day 21 or on the day the mice succumbed to infection. Differences in survival were assessed by Kaplan-Meier analysis with the log-rank test. ANOVA with Tukey's post-test for multiple comparisons were used to assess for differences in fungal burden and geometric mean (GM) MIC values.

C. auris = assay: In vitro susceptibility testing according to CLSI M27-A3 (MIC); format: cell-based, Candida auris; conditions: for MIC50 / MIC90 / MIC: Candidozyma auris; for MIC50: lowest concentration that inhibited 50% of the isolates tested; for MIC90: lowest concentration that inhibited 90% of the isolates tested
Protocol: In vitro susceptibility testing was performed according to the CLSI M27-A3 standard, the contents of which are herein incorporated by reference, against 10 isolates available from the U.S. Food and Drug Administration Center for Disease Control Antibiotic Resistance (FDA CDC AR) Isolate Bank and 13 clinical isolates that were received for testing by the Fungus Testing Laboratory at University of Texas Health Science Center at San Antonio (UTHSCSA).
In vitro activity of T-2307, fluconazole, and caspofungin against C. auris. […] MIC50 and MIC90 are lowest concentrations that inhibited 50% and 90%, respectively, of the isolates tested. GM MIC is geometric mean MIC.

[1] = 50% inhibition endpoint, read-out: GM MIC (geometric mean MIC)
[2] = infecting clinical isolate of C. auris (DI 17-46), read-out: MIC against the infecting isolate

Compound | percent survival (C. auris (DI 17-46); caspofungin 10 mg/kg IP once daily for 7 days) | brain fungal burden (C. auris (DI 17-46); fungal burden arm, day 8 post-inoculation, caspofungin 10 mg/kg IP, control 5.88) | kidney fungal burden (mean) (C. auris (DI 17-46); fungal burden arm, day 8 post-inoculation, caspofungin 10 mg/kg IP) | brain fungal burden (C. auris (DI 17-46); survival arm, day 21 or day mice succumbed, caspofungin 10 mg/kg IP, control 6.31) | kidney fungal burden (C. auris (DI 17-46); survival arm, day 21 or day mice succumbed, caspofungin 10 mg/kg IP) | MIC50 (C. auris; 50% inhibition endpoint) | MIC90 (C. auris; 50% inhibition endpoint) | MIC (C. auris; [1]) | MIC (C. auris; [2]) | improvement in survival vs control (C. auris (DI 17-46); fluconazole 20 mg/kg PO once daily) | percent survival (C. auris (DI 17-46); T-2307 3 mg/kg SC once daily for 7 days) | kidney fungal burden (mean) (C. auris (DI 17-46); fungal burden arm, day 8 post-inoculation, T-2307 3 mg/kg SC) | nature of activity (kidney fungal burden vs 24-hour group before start of therapy) (C. auris (DI 17-46); fungal burden arm, T-2307 3 mg/kg SC) | improvement in survival vs control (C. auris (DI 17-46); lower doses of T-2307 (0.75, 1.5 mg/kg SC once daily)) | brain fungal burden (C. auris (DI 17-46); survival arm, day 21 or day mice succumbed, T-2307 3 mg/kg SC, control 6.31) | kidney fungal burden (C. auris (DI 17-46); survival arm, day 21 or day mice succumbed, T-2307 3 mg/kg SC) | MIC Range (C. auris; 50% inhibition endpoint, 23 C. auris isolates, 24 hours at 35° C.) | MIC50 (C. auris; 100% inhibition endpoint) | MIC90 (C. auris; 100% inhibition endpoint) | MIC (C. auris; 100% inhibition endpoint, read-out: GM MIC (geometric mean MIC))
CC[C@H](C)C[C@H](C)CCCCCCCCC(=O)N[C@H]1C[C@@H](O)[C@@H](NCCN)NC(=O)[C@@H]2[C@@H](O)CCN2C(=O)[C@H]([C@H](O)CCN)NC(=O)[C@H]([C@H](O)[C@@H](O)c2ccc(O)cc2)NC(=O)[C@@H]2C[C@@H](O)CN2C(=O)[C@H]([C@@H](C)O)NC1=O [Caspofungin, caspofungin] | 100% | 4.45 log10 CFU/g | 3.21 log10 CFU/g | 2.51 log10 CFU/g | 3.11 log10 CFU/g | 0.25 µg/mL (≈ 0.229 µM) | 0.5 µg/mL (≈ 0.457 µM) | 0.24 µg/mL (≈ 0.22 µM) | 0.25 µg/mL (≈ 0.229 µM) | – | – | – | – | – | – | – | – | – | – | –
OC(Cn1cncn1)(Cn1cncn1)c1ccc(F)cc1F [Fluconazole, fluconazole] | – | – | – | – | – | 4 µg/mL (≈ 13.1 µM) | > 64 µg/mL | 14.6 µg/mL (≈ 47.7 µM) | > 64 µg/mL | did not improve survival | – | – | – | – | – | – | – | – | – | –
N=C(N)c1ccc(OCCCC2CCN(CCCOc3ccc(C(=N)N)cc3)CC2)cc1 [T-2307, 4-{3-[4-(3-{4-[amino(imino)methyl]phenoxy}propyl)-1-piperidinyl]propoxy}benzamidine] | – | – | – | – | – | 0.015 µg/mL (≈ 0.0343 µM) | 0.015 µg/mL (≈ 0.0343 µM) | 0.011 µg/mL (≈ 0.0251 µM) | < 0.008 µg/mL | – | 70% | 5.06 log10 CFU/g | static in nature | did not improve survival | 4.16 log10 CFU/g | 6.28 log10 CFU/g | ≤0.008 to 0.015 µg/mL | > 4 µg/mL | > 4 µg/mL | 2.19 µg/mL (≈ 5 µM)
